{"source": "patent US20070191485A1", "about": "“Active oxygen scavenging composition including citrulline” (Nara Institute of Science and Technology, priority 2001, published 2007)", "key": {"[1]": {"test": "Kinetic analysis of reaction with hydroxyl radical (competition with hydroxylation of salicylic acid)", "conditions": "for Reaction rate constant (with hydroxyl radical): calculated from competitive reaction theory, mannitol as standard", "experimental": "To evaluate ability of citrulline as an active oxygen scavenger, reaction rate between citrulline and hydroxyl radical was determined. Generation of hydroxyl radical was performed by a system using ascorbic acid and hydrogen peroxide. Here hydroxylation of salicylic acid was used as an index for radical generation. The reaction mixture contained 40 mM of K-Pi buffer, pH 7.4, 0.26 mM of ascorbate, 0.15 mM of FeEDTA, 0.6 mM of H2O2, 2 mM of salicylate and various compatible solutes, then the total volume was adjusted to 400 μL. After reaction at 25° C. for 90 minutes, reaction product of salicylic acid and a hydroxyl radical (namely, 2,3-dihydroxybenzoic acid) was altered to its chromogenic derivative. Then it was determined by absorbance at 510 nm. As the result, the secondary reaction rate constant on reaction of citrulline and hydroxyl radical was calculated from competitive reaction theory. As the standard reaction rate constant, a reported value of mannitol (1.7×10^9 M^−1 s^−1) was used.\nThe secondary reaction rate constants between the solutes and hydroxyl radical were roughly calculated."}, "[2]": {"tested_on": "pyruvate kinase (PK)", "test": "Protection of pyruvate kinase (PK) activity from injury by hydroxyl radical", "type": "biochemical, porcine", "conditions": "after 120 minutes (about 36% without citrulline)", "experimental": "The ability of citrulline to protect bio-molecules, such as enzymes or nucleic acids, from hydroxyl radical was investigated. That is, investigation on the effect of hydroxyl radical exerted to enzymatic activity of pyruvate kinase (PK) was performed. Here, hydroxyl radical was generated by a system using ascorbic acid and hydrogen peroxide. The inactivation mixture contained 100 mM of Tris-HCl buffer (pH 7.4), 2.5 U of porcine PK (available from Oriental CO.), 0.2 mM of ascorbate, 0.15 mM of FeEDTA, 0.6 mM of H2O2 and citrulline at various concentrations. Then the total volume was adjusted to 250 μL. The inactivation reaction started by adding H2O2 at 25° C. and 10 μL of aliquot was sampled at constant intervals. Then residual activity of the enzyme was determined. The reaction mixture for measurement of enzymatic activity contained 80 mM of Tris-HCl buffer (pH 7.4), 7.5 mM of MgCl2, 75 mM of KCl, 3.75 mM of ADP, 0.15 mM of NADH, 10 U of porcine LDH, 0.8 mM of PEP and 10 μL of inactivated PK enzyme. The reaction started by addition of substrate at 25° C., and initial rate was measured by alteration of absorbance at 340 nm, accompanied by increase or decrease of NADH. In FIG. 5, ∘ indicates absence of citrulline, ● indicates presence of 200 mM citrulline, ▴ indicates presence of 400 mM citrulline, and ▪ indicates without generation of active oxygen, respectively."}, "[3]": {"tested_on": "malate dehydrogenase (MDH)", "test": "Effect of solutes on enzymatic activity of malate dehydrogenase (MDH)", "type": "biochemical, wild water-melon (Citrullus lanatus sp. No. 101117-1)", "experimental": "(§1) Safety of citrulline was compared with that of arginine, by investigation of inhibition on enzymatic activities of malate dehydrogenase (MDH) and lactate dehydrogenase (LDH), caused by high concentration citrulline and arginine. Chloride ion was used as ion pair for arginine, and assay on potassium chloride was performed to evaluate effect of the chloride ion as well.\n(§2) Leaf tissue derived from wild water-melon (Citrullus lanatus sp. No. 101117-1) was fractured under cooling with liquid nitrogen. Then after extraction with extraction buffer (50 mM Tris-HCl, pH=7.5, 5 mM DTT, 5 μg/ml BSA, 15% glycerol), supernatant obtained by centrifugation at 10,000 g for 5 minutes was used as crude extraction fraction of malate dehydrogenase (MDH). Pig purified authentic enzyme available from Oriental Co., was used as lactate dehydrogenase (LDH). MDH reaction solution contained 100 mM Tris-HCl pH 7.5, 150 μM NADH, 250 μM oxaloacetic acid and 10 μL of enzyme solution, and the total volume of the solution was adjusted to 1 mL. As LDH reaction solution, a mixture containing 10 mM Tris-HCl pH 7.5, 150 μM NADH, 250 μM lithium pyruvate and 10 μL of enzyme solution was used. When effect of various kinds of solutes, e.g. citrulline, on enzymatic activity is to be investigated, pH of the solution was re-adjusted to 7.5 by using KOH after addition of the solute at various concentration. The reaction started at 25° C. by addition of substrate, then initial rate was determined by alteration of absorbance at 340 nm, accompanied by decrease of NADH. Incidentally, in FIG. 2 and FIG. 3, white columns indicate the results of citrulline, black columns indicate those of arginine chloride, and hatched columns indicate those of potassium chloride, respectively."}, "[4]": {"tested_on": "circular plasmid DNA", "test": "Protection of circular plasmid DNA from injury by hydroxyl radical (agarose gel electrophoresis)", "conditions": "after 2 hours", "experimental": "Moreover, the effect of citrulline to prevent DNA from active oxygen injury was investigated. A solution containing 200 ng of circular plasmid DNA and various concentrations of citrulline was prepared and hydroxyl radical was generated by addition of 3 mM of H2O2 and 0.01 mM of FeEDTA. Then injury exerted on DNA was evaluated by agarose gel electrophoresis after 2 hours. The results were shown in FIG. 6 and lanes 1 to 7 indicated following experimental systems, respectively. In FIG. 6, lane 1 indicates molecular marker for electrophoresis. Lane 2 indicates a result untreated plasmid DNA. Lane 3 indicates a result from an experimental system wherein trivalent iron is added solely. Lane 4 indicates a result from an experimental system wherein hydroxyl radical was generated by addition of trivalent iron and hydrogen peroxide. Lane 5 indicates a result from an experimental system wherein 50 mM of citrulline was added to the system of lane 4 (the system with generation of active oxygen) to eliminate the generated active oxygen. Lane 6 indicates a result from an experimental system wherein 100 mM of citrulline was added to the system of lane 4 (the system with generation of active oxygen) to eliminate the generated active oxygen. Lane 7 indicates a result from an experimental system wherein 200 mM of citrulline was added to the system of lane 4 (the system with generation of active oxygen) to eliminate the generated active oxygen."}, "[5]": {"tested_on": "lactate dehydrogenase (LDH)", "test": "Effect of solutes on enzymatic activity of lactate dehydrogenase (LDH)", "type": "biochemical, Pig", "experimental": "as §1, §2"}, "[6]": {"conditions": "reported value used as the standard for calculation, cited from earlier work"}}, "note": "Read-outs that look alike come from different tables or passages of the source.", "data": [{"smiles": "O=C(O)[C@@H]1CCCN1", "note": "[Proline, proline, reference compound]", "values": [{"measurement": "Reaction rate constant (with hydroxyl radical)", "setting": "[1]", "value": "3e+08", "unit": "M⁻¹ s⁻¹"}]}, {"smiles": "NC(=O)NCCC[C@H](N)C(=O)O", "note": "[Citrulline, citrulline]", "values": [{"measurement": "residual activity of PK, % of the initial activity", "setting": "[2]; 200 mM citrulline", "value": 61, "unit": "%"}, {"measurement": "residual activity of PK, % of the initial activity", "setting": "[2]; 400 mM citrulline", "value": 74, "unit": "%"}, {"measurement": "inhibitory effect on malate dehydrogenase (MDH)", "setting": "[3]; high concentration of solute", "value": "did not cause any inhibitory effect"}, {"measurement": "MDH activity, % of control", "setting": "[3]; in the presence of 200 mM", "value": "about 109%"}, {"measurement": "abscission of DNA", "setting": "[4]; 50 mM citrulline (Lane 5)", "value": "markedly reduced"}, {"measurement": "abscission of DNA", "setting": "[4]; 100 mM citrulline (Lane 6)", "value": "markedly reduced"}, {"measurement": "abscission of DNA", "setting": "[4]; 200 mM citrulline (Lane 7)", "value": "markedly reduced"}, {"measurement": "Reaction rate constant (with hydroxyl radical)", "setting": "[1]", "value": "2.9e+09", "unit": "M⁻¹ s⁻¹"}, {"measurement": "potency as a scavenger of hydroxyl radical (FIG. 4)", "setting": "[1]; compared with glycinebetaine, proline, mannitol", "value": "most significant among the four compatible solutes"}, {"measurement": "calculated ID50 value (secondary reaction rate constant with hydroxyl radical)", "setting": "[1]; roughly calculated", "value": "about 3×10^9 M^−1 s^−1"}, {"measurement": "inhibitory effect on lactate dehydrogenase (LDH) activity", "setting": "[5]; high concentration of solute", "value": "not significant"}, {"measurement": "decrease of LDH enzymatic activity", "setting": "[5]; in the presence of 600 mM", "value": "about 10%"}]}, {"smiles": "OC[C@@H](O)[C@@H](O)[C@H](O)[C@H](O)CO", "note": "[Mannitol, mannitol]", "values": [{"measurement": "Reaction rate constant (with hydroxyl radical), reported standard value", "setting": "[6]", "value": "1.7e+09", "unit": "M⁻¹ s⁻¹"}, {"measurement": "Reaction rate constant (with hydroxyl radical), reported standard value", "setting": "[6]; listed as mannitol", "value": "1.7e+09", "unit": "M⁻¹ s⁻¹"}]}, {"smiles": "[Cl-].[K+]", "note": "[potassium chloride, reference compound]", "values": [{"measurement": "MDH enzymatic activity, % of the control activity", "setting": "[3]; in the presence of 600 mM", "value": 21, "unit": "%"}, {"measurement": "LDH enzymatic activity, % of the control activity", "setting": "[5]; in the presence of 600 mM", "value": 64, "unit": "%"}]}, {"smiles": "C[N+](C)(C)CC(=O)O", "note": "[Glycinebetain, glycinebetaine, reference compound]", "values": [{"measurement": "Reaction rate constant (with hydroxyl radical)", "setting": "[1]", "value": "2.1e+07", "unit": "M⁻¹ s⁻¹"}]}, {"smiles": "O=C(O)c1ccccc1O", "note": "[Salicylic acid, salicylic acid, reference compound]", "values": [{"measurement": "Reaction rate constant (with hydroxyl radical)", "setting": "[1]", "value": "6.3e+09", "unit": "M⁻¹ s⁻¹"}]}]}
